Assay results as given in ChEMBL document CHEMBL5226365, “Xylochemical Synthesis and Biological Evaluation of the Orchidaceous Natural Products Isoarundinin I, Bleochrin F, Blestanol K, and Pleionol” (J Nat Prod, 2023).

Legend:
[1] = system: CCRF-CEM; experiment: Cytotoxicity against human CCRF-CEM cells assessed as inhibition of cell growth incubated for 72 hrs by resazurin assay; format: functional, cell-based
[2] = system: ADR5000 cell line; experiment: Cytotoxicity against human CEM/ADR5000 cells overexpressing P-gp assessed as inhibition of cell growth incubated for 72 hrs by resazurin assay; format: functional, cell-based; settings: ADR5000, 72 h
[3] = Resistance index, ratio of IC50 for cytotoxicity against human CEM/ADR5000 cells overexpressing P-gp to IC50 for cytotoxicity against human CCRF-CEM cells; format: functional
[4] = Cytotoxicity against human PBMC assessed as cell viability at 100 uM incubated for 72 hrs by resazurin assay; format: toxicity, cell-based

SMILES	IC50 [1] [µM]	IC50 [2] [µM]	Ratio IC50 [3]	Activity [4]
COc1cc(C2c3ccc(O)cc3CCc3cc(O)cc(OC)c32)ccc1O (stereo unspecified)	18.7	17.2	0.9	Non-Toxic
COc1cc(O)cc(CCc2cccc(O)c2)c1Cc1ccc(O)cc1	43.4	60.4	1.4	Non-Toxic
COc1cc(O)c(Cc2ccc(O)cc2)c2c1C(c1ccc(O)cc1)c1ccc(O)cc1CC2 (racemic)	6.7	47.8	7.1	Non-Toxic
COc1cccc2c1C(=O)c1c(O)c3c(c(O)c1C2=O)C[C@@](O)(C(=O)CO)C[C@@H]3O[C@H]1C[C@H](N)[C@H](O)[C@H](C)O1 [DOXORUBICIN]	–	–	>1000	–
COc1cc(O)cc2c1C(c1ccc(O)cc1)c1ccc(O)cc1CC2 (racemic)	45.7	> 100	–	Non-Toxic
